This is an account of results in US8232269B2, “Amide compounds useful in therapy” (Pfizer Inc., priority 2008, dated 2012).

pKi: −log10 of the molar value.

For the first assay, the system named is ovarian cancer patients.
Experiment: not given
The note with it: RU486 200 mg/day; ovarian cancer patients refractory to cisplatin and paclitaxel; cited from earlier work.
For `CC#C[C@]1(O)CC[C@H]2[C@@H]3CCC4=CC(=O)CCC4=C3[C@@H](c3ccc(N(C)C)cc3)C[C@@]21C` [RU486, mifepristone], the “patients with a clinical response” value is on record as 26.5%.

The target of the next assay is T1, Progesterone Receptor (PR) (Homo sapiens, UniProt P06401).
T1 construct: endogenous in cells; host or cells: T47D human breast mammary carcinoma cells
T1 sequence (P06401 1-933): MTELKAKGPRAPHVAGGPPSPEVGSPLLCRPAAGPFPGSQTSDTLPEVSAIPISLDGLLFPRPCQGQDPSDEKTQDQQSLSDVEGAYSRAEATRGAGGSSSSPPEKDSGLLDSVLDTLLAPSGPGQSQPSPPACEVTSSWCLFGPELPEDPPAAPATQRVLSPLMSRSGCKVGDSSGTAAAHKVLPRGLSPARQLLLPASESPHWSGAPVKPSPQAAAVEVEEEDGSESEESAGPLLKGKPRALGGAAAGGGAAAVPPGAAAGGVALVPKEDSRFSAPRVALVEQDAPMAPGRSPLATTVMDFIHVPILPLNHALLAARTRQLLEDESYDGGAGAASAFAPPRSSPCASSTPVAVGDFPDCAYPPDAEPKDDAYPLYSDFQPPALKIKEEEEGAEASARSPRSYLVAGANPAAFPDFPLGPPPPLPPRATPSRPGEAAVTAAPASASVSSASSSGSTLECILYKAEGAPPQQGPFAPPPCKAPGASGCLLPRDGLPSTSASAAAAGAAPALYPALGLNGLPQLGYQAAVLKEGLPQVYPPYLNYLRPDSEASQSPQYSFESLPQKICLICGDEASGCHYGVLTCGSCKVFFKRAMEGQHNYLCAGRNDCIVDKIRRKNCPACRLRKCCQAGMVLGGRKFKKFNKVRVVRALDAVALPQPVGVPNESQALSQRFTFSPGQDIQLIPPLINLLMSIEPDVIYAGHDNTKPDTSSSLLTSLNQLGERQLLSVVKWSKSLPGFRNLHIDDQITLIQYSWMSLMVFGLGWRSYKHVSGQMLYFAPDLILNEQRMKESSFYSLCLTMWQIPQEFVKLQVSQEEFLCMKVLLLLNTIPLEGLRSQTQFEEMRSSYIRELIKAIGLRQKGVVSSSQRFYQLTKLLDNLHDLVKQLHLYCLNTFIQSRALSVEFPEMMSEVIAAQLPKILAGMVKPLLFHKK
Description: In vitro functional assay for progesterone receptor (PR) antagonists: inhibition of progesterone-induced alkaline phosphatase expression in T47D cells. As to conditions: antagonist format, 5 nM progesterone, Ki calculated from IC50 with the Cheng-Prusoff equation. Format: cell-based. The gist of the method: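 Antagonist format: T47D cells (8750/well, phenol red-free DMEM + 5% CS-FCS) given half-log compound dilutions plus 5 nM progesterone (final), incubated overnight (≥16 h) at 37 °C. Alkaline phosphatase read by CSPD chemiluminescence after freeze-thaw lysis; 0.1 μM RU-486 final defines minimum.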
Take `CC(C)n1nc(-c2ccc(C#N)cc2)c(C2CC2)c1C(=O)NC1CCCOC1` (racemic) [Example 40, (+/−)-3-(4-Cyanophenyl)-4-cyclopropyl-1-isopropyl-N-(tetrahydro-2H-pyran-3-yl)-1H-pyrazole-5-carboxamide]: the negative-log Ki (pKi) is 7.76.
Still for that read-out and setting: to `Cc1c(-c2ccc(C#N)cc2)nn(C2CCC2)c1C(=O)NC[C@@H](C)O` [Example 73, 3-(4-Cyanophenyl)-1-cyclobutyl-N-[(2R)-2-hydroxypropyl]-4-methyl-1H-pyrazole-5-carboxamide] belongs 7.54.
The same measure, in the same setting: to `CC[C@H](C)NC(=O)c1c(C2CC2)c(-c2ccc(C#N)cc2)nn1C(C)C` [Example 33, 3-(4-Cyanophenyl)-4-cyclopropyl-1-isopropyl-N-[(1S)-1-methylpropyl]-1H-pyrazole-5-carboxamide] belongs 8.15; to `Cc1c(-c2ccc(C#N)cc2)nn(C2CCOC2)c1C(=O)NC[C@H](C)O` (mixture of isomers) [Example 78, 3-(4-Cyanophenyl)-N-[(2S)-2-hydroxypropyl]-4-methyl-1-(tetrahydrofuran-3-yl)-1H-pyrazole-5-carboxamide], 7.15; to `CCNC(=O)c1c(CC)c(-c2ccc(C#N)cc2)nn1C(C)C` [Example 116, 3-(4-Cyanophenyl)-N,4-diethyl-1-isopropyl-1H-pyrazole-5-carboxamide], 7.49.
Same read-out and setting: the same measure for `CCc1c(-c2ccc(C#N)cc2)nn(C(C)CC)c1C(=O)NCC(=O)NC` (single isomer, unassigned) [Example 109 Ent 2, 1-sec-Butyl-3-(4-cyanophenyl)-4-ethyl-N-[2-(methylamino)-2-oxoethyl]-1H-pyrazole-5-carboxamide]: 6.72; for `CC(Cn1cccn1)NC(=O)c1c(C2CC2)c(-c2ccc(C#N)cc2)nn1C(C)C` (racemic) [Example 44, (+/−)-3-(4-Cyanophenyl)-4-cyclopropyl-1-isopropyl-N-[1-methyl-2-(1H-pyrazol-1-yl)ethyl]-1H-pyrazole-5-carboxamide]: 7.39; for `CC(C)n1nc(-c2ccc(C#N)cc2)c(C2CC2)c1C(=O)NCC(C)(C)C` [Example 34, 3-(4-Cyanophenyl)-4-cyclopropyl-N-(2,2-dimethylpropyl)-1-isopropyl-1H-pyrazole-5-carboxamide]: 7.72.
With `CC(C)NC(=O)c1c(Cc2ccccc2)c(-c2ccc(C#N)cc2)nn1C(C)C` [Example 95, 4-Benzyl-3-(4-cyanophenyl)-N,1-diisopropyl-1H-pyrazole-5-carboxamide], the negative logarithm of the Ki (pKi) was 6.50.

The test system of a further assay is Brca1/p53-deficient mice.
Experiment: not given
As to conditions: treatment of Brca1/p53-deficient mice; cited from earlier work.
Regarding `CC#C[C@]1(O)CC[C@H]2[C@@H]3CCC4=CC(=O)CCC4=C3[C@@H](c3ccc(N(C)C)cc3)C[C@@]21C` [RU486, mifepristone], the “effect on mammary tumorigenesis” value is given as “prevented mammary tumorigenesis”.

Broadly, the pKi is the negative decadic logarithm of the Ki, by convention in mol/L.
